Data reported in ChEMBL document CHEMBL3045273, “Synthesis, characterization, and pharmacological evaluation of 1-[2-(6-nitro-4-oxo-2-phenyl-4H-quinazolin-3-yl)-ethyl]-3-phenyl ureas” (2013).
In brackets after ≈: the same amount, converted by molar mass.

What was measured:
Candida albicans [1] = test: Antifungal activity against Candida albicans ATCC 66027 assessed as growth inhibition at 300 ug/ml after 24 hr by Kirby-Bauer disk diffusion method; assay type: functional; details: ATCC 66027, 24 h, read-out: DIZ
Bacillus subtilis [2] = test: Antibacterial activity against Bacillus subtilis ATCC 11774 assessed as growth inhibition at 300 ug/ml after 24 hr by Kirby-Bauer disk diffusion method; assay type: functional; details: ATCC 11774, 24 h, read-out: DIZ
Pseudomonas aeruginosa [3] = test: Antibacterial activity against Pseudomonas aeruginosa ATCC 27853 assessed as growth inhibition at 300 ug/ml after 24 hr by Kirby-Bauer disk diffusion method; assay type: functional; details: ATCC 27853, 24 h, read-out: DIZ
Staphylococcus aureus [4] = test: Antibacterial activity against Staphylococcus aureus ATCC 25923 assessed as growth inhibition at 300 ug/ml after 24 hr by Kirby-Bauer disk diffusion method; assay type: functional; details: ATCC 25923, 24 h, read-out: DIZ
Candida albicans [5] = test: Antifungal activity against Candida albicans ATCC 66027 assessed as growth inhibition at 100 ug/ml after 24 hr by Kirby-Bauer disk diffusion method; assay type: functional; details: ATCC 66027, 24 h, read-out: DIZ
Bacillus subtilis [6] = test: Antibacterial activity against Bacillus subtilis ATCC 11774 assessed as growth inhibition at 100 ug/ml after 24 hr by Kirby-Bauer disk diffusion method; assay type: functional; details: ATCC 11774, 24 h, read-out: DIZ
Bacillus subtilis [7] = test: Antibacterial activity against Bacillus subtilis ATCC 11774 assessed as initial concentration required for appearance of zone of inhibition after 24 hr; assay type: functional
Candida albicans [8] = test: Antifungal activity against Candida albicans ATCC 66027 assessed as initial concentration required for appearance of zone of inhibition after 24 hr; assay type: functional
Staphylococcus aureus [9] = test: Antibacterial activity against Staphylococcus aureus ATCC 25923 assessed as initial concentration required for appearance of zone of inhibition after 24 hr; assay type: functional
Pseudomonas aeruginosa [10] = test: Antibacterial activity against Pseudomonas aeruginosa ATCC 27853 assessed as initial concentration required for appearance of zone of inhibition after 24 hr; assay type: functional
Escherichia coli [11] = test: Antibacterial activity against Escherichia coli ATCC 25922 assessed as initial concentration required for appearance of zone of inhibition after 24 hr; assay type: functional
Candida albicans [12] = test: Antifungal activity against Candida albicans ATCC 66027 assessed as growth inhibition after 24 hr by serial broth dilution method; assay type: functional; details: ATCC 66027, 24 h
Bacillus subtilis [13] = test: Antibacterial activity against Bacillus subtilis ATCC 11774 assessed as growth inhibition after 24 hr by serial broth dilution method; assay type: functional; details: ATCC 11774, 24 h
Pseudomonas aeruginosa [14] = test: Antibacterial activity against Pseudomonas aeruginosa ATCC 27853 assessed as growth inhibition after 24 hr by serial broth dilution method; assay type: functional; details: ATCC 27853, 24 h
Staphylococcus aureus [15] = test: Antibacterial activity against Staphylococcus aureus ATCC 25923 assessed as growth inhibition after 24 hr by serial broth dilution method; assay type: functional; details: ATCC 25923, 24 h
Escherichia coli [16] = test: Antibacterial activity against Escherichia coli ATCC 25922 assessed as growth inhibition after 24 hr by serial broth dilution method; assay type: functional; details: ATCC 25922, 24 h
Escherichia coli [17] = test: microbe, parasite or virus in culture; details: ATCC 25922, 24 h, read-out: DIZ
Escherichia coli [18] = test: microbe, parasite or virus in culture; details: ATCC 25922, 24 h, read-out: DIZ; remark: listed apart in the source
Pseudomonas aeruginosa [19] = test: Antibacterial activity against Pseudomonas aeruginosa ATCC 27853 assessed as growth inhibition at 100 ug/ml after 24 hr by Kirby-Bauer disk diffusion method; assay type: functional; details: ATCC 27853, 24 h, read-out: DIZ
Escherichia coli [20] = test: Antibacterial activity against Escherichia coli ATCC 25922 assessed as growth inhibition at 70 ug/ml after 24 hr by Kirby-Bauer disk diffusion method; assay type: functional; details: ATCC 25922, 24 h, read-out: DIZ
Staphylococcus aureus [21] = test: Antibacterial activity against Staphylococcus aureus ATCC 25923 assessed as growth inhibition at 100 ug/ml after 24 hr by Kirby-Bauer disk diffusion method; assay type: functional; details: ATCC 25923, 24 h, read-out: DIZ
Escherichia coli [22] = test: Antibacterial activity against Escherichia coli ATCC 25922 assessed as growth inhibition at 40 ug/ml after 24 hr by Kirby-Bauer disk diffusion method; assay type: functional; details: ATCC 25922, 24 h, read-out: DIZ

Structure (SMILES) | zone of inhibition at 300 µg/mL (Candida albicans [1]) [mm] | zone of inhibition at 300 µg/mL (Bacillus subtilis [2]) [mm] | zone of inhibition at 300 µg/mL (Pseudomonas aeruginosa [3]) [mm] | zone of inhibition at 300 µg/mL (Staphylococcus aureus [4]) [mm] | zone of inhibition at 100 µg/mL (Candida albicans [5]) [mm] | zone of inhibition at 100 µg/mL (Bacillus subtilis [6]) [mm] | Activity (Bacillus subtilis [7]) [µg/mL] | Activity (Candida albicans [8]) [µg/mL] | Activity (Staphylococcus aureus [9]) [µg/mL] | Activity (Pseudomonas aeruginosa [10]) [µg/mL] | Activity (Escherichia coli [11]) [µg/mL] | MIC (Candida albicans [12]) [µg/mL] | MIC (Bacillus subtilis [13]) [µg/mL] | MIC (Pseudomonas aeruginosa [14]) [µg/mL] | MIC (Staphylococcus aureus [15]) [µg/mL] | MIC (Escherichia coli [16]) [µg/mL] | zone of inhibition at 300 µg/mL (Escherichia coli [17]) [mm] | zone of inhibition at 100 µg/mL (Escherichia coli [18]) [mm] | zone of inhibition at 100 µg/mL (Pseudomonas aeruginosa [19]) [mm] | zone of inhibition at 100 µg/mL (Staphylococcus aureus [21]) [mm] | further results
O=C(NCCn1c(-c2ccccc2)nc2ccc([N+](=O)[O-])cc2c1=O)Nc1ccccc1 | 20 | 15 | 14 | 14 | 17 | 11 | 100 | 20 | 200 | 200 | 100 | 20 (≈ 46.6 µM) | 100 (≈ 233 µM) | 40 (≈ 93.1 µM) | 100 (≈ 233 µM) | 70 (≈ 163 µM) | 16 | 11 | – | – | –
O=C(NCCn1c(-c2ccccc2)nc2ccc([N+](=O)[O-])cc2c1=O)NC1CCCCC1 | 21 | 13 | 17 | 12 | 13 | – | 200 | 20 | 200 | 70 | 70 | 20 (≈ 45.9 µM) | 100 (≈ 230 µM) | 70 (≈ 161 µM) | 200 (≈ 459 µM) | 70 (≈ 161 µM) | 18 | 13 | 12 | – | –
O=C(NCCn1c(-c2ccccc2)nc2ccc([N+](=O)[O-])cc2c1=O)Nc1ccccc1Cl | 20 | 15 | 19 | 14 | 16 | 12 | 70 | 40 | 100 | 70 | 70 | 20 (≈ 43.1 µM) | 70 (≈ 151 µM) | 100 (≈ 216 µM) | 100 (≈ 216 µM) | 70 (≈ 151 µM) | 18 | 14 | 13 | 11 | zone of inhibition at 70 µg/mL (Escherichia coli [20]): 11 mm
O=C(NCCn1c(-c2ccccc2)nc2ccc([N+](=O)[O-])cc2c1=O)Nc1ccc(Cl)cc1 | 21 | 16 | 16 | 12 | 15 | 12 | 70 | 40 | 200 | 100 | 70 | 40 (≈ 86.2 µM) | 70 (≈ 151 µM) | 40 (≈ 86.2 µM) | 200 (≈ 431 µM) | 40 (≈ 86.2 µM) | 14 | 12 | 11 | – | –
Cc1ccccc1NC(=O)NCCn1c(-c2ccccc2)nc2ccc([N+](=O)[O-])cc2c1=O | 19 | 14 | 18 | 14 | 16 | 11 | 100 | 20 | 70 | 70 | 40 | 20 (≈ 45.1 µM) | 70 (≈ 158 µM) | 40 (≈ 90.2 µM) | 70 (≈ 158 µM) | 40 (≈ 90.2 µM) | 16 | 13 | 12 | 12 | zone of inhibition at 40 µg/mL (Escherichia coli [22]): 11 mm
Cc1ccc(NC(=O)NCCn2c(-c3ccccc3)nc3ccc([N+](=O)[O-])cc3c2=O)cc1 | 17 | 15 | 17 | 14 | 14 | 12 | 70 | 20 | 70 | 70 | 40 | 20 (≈ 45.1 µM) | 70 (≈ 158 µM) | 70 (≈ 158 µM) | 70 (≈ 158 µM) | 40 (≈ 90.2 µM) | 17 | 14 | 12 | 12 | zone of inhibition at 40 µg/mL (Escherichia coli [22]): 11 mm
O=C(NCCn1c(-c2ccccc2)nc2ccc([N+](=O)[O-])cc2c1=O)Nc1ccc(C(F)(F)F)cc1 | 20 | 14 | 18 | 13 | 15 | 12 | 70 | 40 | 100 | 70 | 100 | 40 (≈ 80.4 µM) | 70 (≈ 141 µM) | 40 (≈ 80.4 µM) | 70 (≈ 141 µM) | 70 (≈ 141 µM) | 15 | 11 | 12 | 11 | –
O=C(NCCn1c(-c2ccccc2)nc2ccc([N+](=O)[O-])cc2c1=O)Nc1cc(C(F)(F)F)cc(C(F)(F)F)c1 | 24 | 19 | 19 | 12 | 17 | 14 | 70 | 20 | 200 | 40 | 100 | 20 (≈ 35.4 µM) | 40 (≈ 70.7 µM) | 40 (≈ 70.7 µM) | 200 (≈ 354 µM) | 100 (≈ 177 µM) | 14 | 11 | 14 | – | –
CSc1ccc(NC(=O)NCCn2c(-c3ccccc3)nc3ccc([N+](=O)[O-])cc3c2=O)cc1 | 20 | 16 | 19 | 12 | 15 | 12 | 70 | 20 | 200 | 70 | 40 | 20 (≈ 42.1 µM) | 70 (≈ 147 µM) | 70 (≈ 147 µM) | 200 (≈ 421 µM) | 40 (≈ 84.1 µM) | 18 | 14 | 12 | – | zone of inhibition at 40 µg/mL (Escherichia coli [22]): 11 mm
O=C(NCCn1c(-c2ccccc2)nc2ccc([N+](=O)[O-])cc2c1=O)Nc1cc(C(F)(F)F)ccc1Cl | 20 | 14 | 19 | 12 | 14 | 11 | 100 | 40 | 300 | 70 | 70 | 20 (≈ 37.6 µM) | 100 (≈ 188 µM) | 70 (≈ 132 µM) | 200 (≈ 376 µM) | 70 (≈ 132 µM) | 18 | 11 | 12 | – | –
O=C(O)c1cn(C2CC2)c2cc(N3CCNCC3)c(F)cc2c1=O [CIPROFLOXACIN] | – | – | – | – | – | – | 5 | – | 10 | 10 | 20 | – | 5 (≈ 15.1 µM) | 10 (≈ 30.2 µM) | 5 (≈ 15.1 µM) | 15 (≈ 45.3 µM) | – | – | – | – | –
OC(Cn1cncn1)(Cn1cncn1)c1ccc(F)cc1F [FLUCONAZOLE] | – | – | – | – | – | – | – | 10 | – | – | – | 5 (≈ 16.3 µM) | – | – | – | – | – | – | – | – | –
